Test results: PubChem BioAssay (NCI)
Several values for one entry are separate records, joined by “and”; a condition that tells them apart may be missing. Identical values can stand only once.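 Protocol summary: plate cells (96-well), add compound at 5 concentrations, incubate 48 h, interpolate endpoints linearly. Here, GI50 denotes the concentration required for 50% inhibition of growth. TGI denotes the concentration required for complete inhibition of growth.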

Legend:
Experiment in all cases: NCI anticancer screen, dose series, 48 h
786-0 renal = tested on: 786-0 renal
HOP-92 NSCLC = tested on: HOP-92 NSCLC
M14 melanoma = tested on: M14 melanoma
MOLT-4 leukemia = tested on: MOLT-4 leukemia
NCI-H226 lung = tested on: NCI-H226 lung
NCI-H522 lung = tested on: NCI-H522 lung
NCI/ADR-RES ovarian = tested on: NCI/ADR-RES ovarian
OVCAR-3 ovarian = tested on: OVCAR-3 ovarian
OVCAR-5 ovarian = tested on: OVCAR-5 ovarian
SF-295 CNS = tested on: SF-295 CNS

SMILES	GI50 (786-0 renal)	TGI (786-0 renal)	GI50 (HOP-92 NSCLC)	TGI (HOP-92 NSCLC)	GI50 (M14 melanoma)	TGI (M14 melanoma)	GI50 (MOLT-4 leukemia)	TGI (MOLT-4 leukemia)	GI50 (NCI-H226 lung)	TGI (NCI-H226 lung)	GI50 (NCI-H522 lung)	TGI (NCI-H522 lung)	GI50 (NCI/ADR-RES ovarian)	TGI (NCI/ADR-RES ovarian)	GI50 (OVCAR-3 ovarian)	TGI (OVCAR-3 ovarian)	GI50 (OVCAR-5 ovarian)	TGI (OVCAR-5 ovarian)	GI50 (SF-295 CNS)	TGI (SF-295 CNS)
CCOC(=O)c1cc2c(n1Cc1ccccc1OC)-c1oncc1CCC2	> 100 µM	> 100 µM	0.309 µM	7.43 µM	3.67 µM	> 100 µM	5.68 µM	> 100 µM	> 100 µM	> 100 µM	0.351 µM	2.88 µM	1.36 µM	> 100 µM	0.874 µM	6.49 µM	> 100 µM	> 100 µM	1.38 µM	6.1 µM
COc1cc(/C=C/c2ccnc3ccccc23)cc(OC)c1OC	4.42 µM	28.2 µM and 61.6 µM	2.07 µM	9.08 µM	2.43 µM	91 µM and 13.8 µM	2.47 µM	13.4 µM and 26.2 µM	–	50.9 µM	–	46.8 µM and 7.39 µM	1.25 µM	9.32 µM and 4.98 µM	1.67 µM	14.6 µM and 4.71 µM	–	95 µM and > 100 µM	3.12 µM	> 100 µM and 53 µM
O=C(O)c1[nH]c2c([N+](=O)[O-])cc([N+](=O)[O-])cc2c1C(=O)O	–	> 100 µM	–	> 100 µM	–	> 100 µM	–	> 100 µM	–	> 100 µM	–	> 100 µM	–	> 100 µM	–	> 100 µM	–	> 100 µM	–	> 100 µM
C[C@@H](Oc1cc(-c2cnn(C3CCNCC3)c2)cnc1N)c1c(Cl)cc(F)cc1Cl	2.13 µM	4.84 µM	0.73 µM	3.6 µM	1.54 µM	3.23 µM	0.866 µM	7.71 µM	2.25 µM	9.87 µM	1.79 µM	5.73 µM	5.81 µM	20.1 µM	4.13 µM	13.5 µM	2 µM	10.1 µM	0.505 µM	7.23 µM
CNC(=O)NCCN1N=C(C)/C(=C\c2ccccc2)CC1=O	–	> 100 µM	–	> 100 µM	–	> 100 µM	–	> 100 µM	–	> 100 µM	–	> 100 µM	–	–	–	> 100 µM	–	> 100 µM	–	> 100 µM
c1ccc2c(c1)[nH]c1c3ccccc3sc21	–	> 100 µM	–	> 100 µM	–	> 100 µM	–	> 100 µM	–	> 100 µM	–	> 100 µM	–	> 100 µM	–	> 100 µM	–	> 100 µM	–	> 100 µM
Cc1cc(OCc2nn(CN3CCN(C)CC3)c(=S)n2/N=C/c2ccc(F)cc2)ccc1Cl	18.7 µM	34.1 µM	17.8 µM	37.6 µM	17.9 µM	33.1 µM	14.7 µM	34.9 µM	17.7 µM	33.6 µM	15.7 µM	30.8 µM	18.8 µM	36.1 µM	17.4 µM	34.3 µM	25 µM	49.5 µM	17.9 µM	36.6 µM
CC(=N/NC(N)=S)/C(C)=N/NC(N)=S	–	> 100 µM	–	–	–	> 100 µM	–	> 100 µM	–	> 100 µM	–	> 100 µM	–	> 100 µM	–	> 100 µM	–	> 100 µM	–	–
CCc1cccc(NC(=O)c2cc(/C=C/c3ccccc3)[nH]c(=S)n2)c1	–	> 100 µM	–	> 100 µM	–	> 100 µM	–	> 100 µM	–	> 100 µM	–	> 100 µM	–	–	–	> 100 µM	–	> 100 µM	–	> 100 µM
Nc1cc(N)c2nc(-c3ccccc3)c(NCc3ccc(Cl)c(Cl)c3)nc2c1	13.1 µM	30.4 µM	–	–	15.7 µM	34.6 µM	2.07 µM	> 100 µM	22.6 µM	46.3 µM	2.05 µM	4.91 µM	17.4 µM	45.6 µM	2.64 µM	6.98 µM	23.8 µM	40.7 µM	15.5 µM	37.2 µM
O=C(O)c1cc(Cl)cc(Cc2cc(Cl)cc(C(=O)O)c2O)c1O	–	> 100 µM	–	> 100 µM	–	> 100 µM	–	> 100 µM	–	–	–	> 100 µM	–	> 100 µM	–	> 100 µM	–	> 100 µM	–	> 100 µM
CC[Si](CC)(CC)OC1[C@@H](O[Si](CC)(CC)CC)[C@@H](CNC(=O)NC)O[C@H]1n1cnc2c(NC(=O)Nc3ccccc3)ncnc21 (stereo partly specified)	2.96 µM	10.7 µM	1.58 µM	5.26 µM	3.75 µM	> 100 µM	–	–	5.11 µM	> 100 µM	3.83 µM	78.5 µM	3.96 µM	> 100 µM	2.63 µM	7.7 µM	4.06 µM	62.1 µM	2.89 µM	11.7 µM
CCc1ccccc1NC(=O)C(=O)C(C#N)c1c(Cl)cccc1Cl (stereo unspecified)	–	> 100 µM	–	> 100 µM	–	> 100 µM	–	> 100 µM	–	> 100 µM	–	> 100 µM	–	–	–	> 100 µM	–	–	–	> 100 µM
Oc1cc(O)c2c(c1)OC(c1ccc(O)c(O)c1)C(O)C2c1c(O)cc(O)c2c1OC(c1ccc(O)c(O)c1)C(O)C2 (stereo unspecified)	–	> 100 µM	–	> 100 µM	–	> 100 µM	–	–	–	> 100 µM	–	> 100 µM	–	> 100 µM	–	> 100 µM	–	> 100 µM	–	> 100 µM
COc1cccc(-c2nn(-c3ccccc3)cc2-c2ccnc(NCCCNS(=O)(=O)c3ccc(C(F)(F)F)cc3)c2)c1	4.6 µM	> 100 µM	3.68 µM	> 100 µM	4.46 µM	> 100 µM	–	–	8.75 µM	> 100 µM	2.51 µM	23 µM	3.86 µM	> 100 µM	5.75 µM	> 100 µM	> 100 µM	> 100 µM	3.17 µM	> 100 µM
CC(C)(C)OC1=C(OC(C)(C)C)C(O)(c2ccc(Cl)cc2)C1=O (stereo unspecified)	–	> 100 µM	–	–	–	> 100 µM	–	> 100 µM	–	–	–	–	–	–	–	> 100 µM	–	> 100 µM	–	> 100 µM
CCOC(=O)CCn1cnc(N)n1	–	> 100 µM	–	> 100 µM	–	> 100 µM	–	> 100 µM	–	> 100 µM	–	> 100 µM	–	–	–	> 100 µM	–	> 100 µM	–	> 100 µM
O=C1CCc2ccc(O)c(c2)Oc2ccc(cc2)[C@@H]2O[C@@H]2CO1	–	> 100 µM	–	88.2 µM	–	> 100 µM	–	> 100 µM	–	> 100 µM	–	–	–	–	–	> 100 µM	–	> 100 µM	–	> 100 µM
